ChEMBL document CHEMBL1142168, “Prevalence and susceptibility testing of new species of pseudallescheria and scedosporium in a collection of clinical mold isolates” (2007)
Converted amounts (≈) assume the structure as drawn.

Assays:
[1] = Antifungal activity against Scedosporium aurantiacum bronchial aspirate isolate CNM-CM-4183 at 48 hrs; assay type: functional
Scedosporium aurantiacum [2] = assay: Antifungal activity against Scedosporium aurantiacum ear swab isolate CNM-CM-2846 at 48 hrs; assay type: functional
Scedosporium apiospermum = assay: Antifungal activity against Scedosporium apiospermum isolates at 48 hrs
Scedosporium aurantiacum [3] = assay: Antifungal activity against Scedosporium aurantiacum corneal isolate CNM-CM-2923 at 48 hrs; assay type: functional; conditions: Cornea
[4] = Antifungal activity against Scedosporium aurantiacum sputum isolate CNM-CM-2631 at 48 hrs; assay type: functional

| Structure (SMILES) | MIC [1] [µg/mL] | MIC (Scedosporium aurantiacum [2]) [µg/mL] | MIC (Scedosporium apiospermum) [µg/mL] | MIC (Scedosporium aurantiacum [3]) [µg/mL] | MIC [4] [µg/mL] |
| --- | --- | --- | --- | --- | --- |
| CCC(C)n1ncn(-c2ccc(N3CCN(c4ccc(OCC5COC(Cn6cncn6)(c6ccc(Cl)cc6Cl)O5)cc4)CC3)cc2)c1=O (stereo not given) [ITRACONAZOLE] | 16 (≈ 22.7 µM) | 8 (≈ 11.3 µM) | 0.25 (≈ 0.354 µM) | 16 (≈ 22.7 µM) | 2 (≈ 2.83 µM) |
| C[C@@H]1[C@H](O)[C@@H](C)/C=C/C=C/C=C/C=C/C=C/C=C/C=C/[C@H](O[C@@H]2O[C@H](C)[C@@H](O)[C@H](N)[C@@H]2O)C[C@@H]2O[C@](O)(C[C@@H](O)C[C@@H](O)[C@H](O)CC[C@@H](O)C[C@@H](O)CC(=O)O[C@H]1C)C[C@H](O)[C@H]2C(=O)O [AMPHOTERICIN B] | 8 (≈ 8.66 µM) | 16 (≈ 17.3 µM) | 0.25 (≈ 0.271 µM) | 8 (≈ 8.66 µM) | 4 (≈ 4.33 µM) |
| C[C@@H](c1ncncc1F)[C@](O)(Cn1cncn1)c1ccc(F)cc1F [VORICONAZOLE] | 0.5 (≈ 1.43 µM) | 1 (≈ 2.86 µM) | 0.125 (≈ 0.358 µM) | 16 (≈ 45.8 µM) | 0.5 (≈ 1.43 µM) |
